The values that follow come from paper PMC12400753 (Respiratory Research, 2025).

Data set [1] relates to primary human lung fibroblasts. The experiment in a line: LPA-induced chemotaxis assay. It is filed as cell-based. As to conditions: 1 µM LPA chemoattractant; 6 h preincubation; read-out: IC50 inhibition of fibroblast chemotaxis. On the procedure: Chemotaxis assay: Primary human lung fibroblasts were obtained from ATCC (Cat # PCS-201-020) and cultured in fibroblast media as per ATCC directions. Fibroblasts were serum starved overnight in basal fibroblast media. Cells were then lifted using CellStripper, centrifuged at 500 x g for 10 min, then resuspended in basal media. […] The receiving chamber contained 1 µM LPA. Chemotaxis was quantified as per Cell Biolabs, Inc instructions on a Flexstation 3 (Molecular Devices).

The subject of data set [2] is bleomycin-induced lung fibrosis. Put plainly: Systemic (subcutaneous) bleomycin mouse model. In kind it is in vivo. The note with it: 3 mg/kg oral once a day, therapeutic. On the procedure:
Mice were injected subcutaneously with bleomycin (0.1 units/day), on a schedule of 5 days on/2 days off to induce fibrosis. […] Dosing was maintained until study end, at which point lung tissues were collected. The right lobe was snap frozen and processed for collagen analysis for hydroxyproline; the left lobe was sectioned and stained with Masson’s trichrome stain for histological assessment of tissue collagen. This study was conducted by Inotiv (West Lafayette, IN). Forty-four female 9 week old C57Bl/6 mice (Jackson Labs) were provided standard chow (Envigo, Cat #: 8940), housed under standard conditions, and allowed to acclimate for > 3 days prior to enrollment. Prior to start, mice were weighed and placed into balanced enrollment groups. Four days prior to start, mice were anesthetized, dorsal fur shaved and removed with depilatory agent, and two circles (~ 1.5 cm diameter) heat-branded on their dorsal abdomen. Fur was removed as needed for the balance of the study to ensure consistent location of s.c. injections. Beginning on day 0 and through day 26, mice were anesthetized with isoflurane and administered 0.9% NaCl or bleomycin injections (100 µl/injection, s.c.) into each of the circles (2 injections/mouse/d) on a 5 day on/2 day off paradigm. Mice were administered 0.9% NaCl (vehicle) or bleomycin (0.1 U) with bleomycin doses split evenly between the two circles (i.e., 0.05 U/circle). […] Weight measures and health observations were made daily. On day 27, mice were dosed to enable trough blood/plasma collection on day 28, which was collected via retro-orbital approach under isoflurane anesthesia. Following blood collection, mice were administered vehicle or compound on a timetable as appropriate to enable a peak blood collection 2 h postdose. At the time of sacrifice, mice were anesthetized with pentobarbital, a tracheotomy performed and interfaced with a positive pressure ventilator providing 100% O2. The mouse’s chest was then opened, and a needle interfaced with an infusion pump introduced to the right ventricle. […] The lungs were then harvested, immediately immersed in ice-cold 0.9% NaCl, gross dissected and subjected to morphological analyses. Tissue samples will be processed for biochemical and/or histological analyses as described below. Masson’s Trichrome Blue stained slides were subjected to histological analyses using color segmentation analysis for lung fibrosis. Frozen lung samples underwent hydroxyproline analysis as described below. Lung tissue processing – following exsanguination and flushing of the pulmonary circulation to clear blood, the lungs were removed, placed in ice-cold 0.9% NaCl and processed on wet ice. Extraneous tissue was removed and whole lung weight recorded. […]

The target of another data set is T1, LPAR1 (Mus musculus, UniProt P61793).
T1 construct: from tissue; host or cells: lung of female C57BL6/N mice, dosed in vivo
T1 sequence (P61793 whole entry): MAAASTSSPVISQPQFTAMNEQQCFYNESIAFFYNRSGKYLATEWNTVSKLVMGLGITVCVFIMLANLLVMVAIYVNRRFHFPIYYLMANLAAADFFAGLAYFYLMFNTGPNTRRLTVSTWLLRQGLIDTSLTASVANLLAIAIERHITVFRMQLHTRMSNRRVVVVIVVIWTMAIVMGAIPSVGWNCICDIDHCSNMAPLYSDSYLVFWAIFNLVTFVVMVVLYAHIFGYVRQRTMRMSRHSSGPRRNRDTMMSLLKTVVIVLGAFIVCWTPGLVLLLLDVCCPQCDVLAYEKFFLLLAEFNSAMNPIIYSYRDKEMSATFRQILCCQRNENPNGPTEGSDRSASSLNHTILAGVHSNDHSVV
The experiment in a line: In vivo lung receptor occupancy with [3H]-PIPE-497. As to conditions: for EC50: read-out: lung receptor occupancy EC50 (plasma concentration). The procedure:
[^3H]-PIPE-497 was diluted to 9.8 µCi/mL in saline and administered via IV injection to the lateral tail vein at a dose volume of 5 mL/kg. Five minutes following radioligand administration, mice were euthanized by decapitation, trunk blood collected into K3EDTA tubes and stored on wet ice, each lung rapidly dissected, weighed and placed into a 5 mL polypropylene tube. Tissues were diluted with a 10x volume of ice-cold binding buffer (50 mM HEPES, 100 mM NaCl2, 2 mM EDTA). Lungs were then homogenized (25,000 rpm, 7 s). 300 µL of homogenate was filtered over Whatman GF/B filters (GE Life Sciences, Marlborough, MA) which had been pre-wetted with 0.5% polyethyleneimine prior to loading onto the Hoefer vacuum manifold. Filters were washed once by applying 3 mL ice-cold wash buffer (50 mM Tris, 154 mM NaCl, 0.05% Tween 20) to the manifold for a total of 2 washes. […] Washed filters were removed from the manifold and air dried. Following completion of filtration of all samples, uncapped scintillation vials were placed into an oven (~ 40–50 °C) for ~ 30 min to ensure complete drying. Five (5) mL Ultima Gold F scintillation fluid was added to each tube. Tubes were capped, gently agitated, and dark equilibrated for 30 min then read on a Beckman LS6500 liquid scintillation counter for tritium disntegrations per minute measurements. After all samples were collected, dissected, and filtered, the previously collected blood in K3EDTA tubes was centrifuged (1450 x g, 10 min, 4 °C) to separate plasma.

The subject of data set [3] is sandwich-cultured human hepatocytes. Put plainly: Cholestatic drug-induced liver injury (c-DILI) assay. In kind it is cell-based. As to conditions: 30 µM, 24 h, in the presence or absence of a toxic concentration of bile acids. The procedure: This study was conducted at BioIVT (Durham, […]). Sandwich-cultured human hepatocytes (SCHH) were prepared on BioCoat 96-well Cell Culture Plate from Corning (Cat # 354407) using Transporter Certified™ cryopreserved hepatocytes from BioIVT (Cat # M00995-TCERT) and maintained in freshly prepared QualGro™ Hepatocyte Culture Medium. […] Following 24 h of exposure, the culture plates were harvested for adenosine triphosphate (ATP) and lactate dehydrogenase (LDH) analysis. Cellular ATP content was determined using the CellTiter-Glo® Assay Kit and LDH leakage into the culture media was determined using the CytoTox-ONE® Assay Kit, both obtained from Promega, per manufacturer’s instructions.

The test system of data set [4] is human precision cut lung slices from donors with pulmonary fibrosis. The experiment in a line: Fibrotic marker mRNA (qPCR) in cryopreserved PCLS from donors with pulmonary fibrosis. It is filed as cell-based. As to conditions: PIPE-791, 6 days, 6 donors.
Details of data set [5]: method as in NCT05983939. The note with it: Phase I; ref NCT05983939; cited from earlier work.
The mark [6] stands for this setting: once per day for 4 days (steady state), 3 h after last dose.

Like-named read-outs stand apart in the source and are kept apart here.

Consider `COc1ccc(NC(=O)N(c2ccccc2C(C)C)C2CCC(C(=O)O)CC2)c(OC(F)F)n1` (centres unmarked) [PIPE-791], for which the IC50 in data set [1] amounted to 1.5 nM. The “reduction in lung hydroxyproline compared to bleomycin/vehicle” value in data set [2] was determined as 40%. In addition, the “tissue collagen fraction (TCF), trichrome” value in data set [2] (p = 0.0017) is given as “nearly full reduction”. In addition, at LPAR1 (in vivo receptor occupancy), the “increase in potency when dosed 3 versus 24 h prior to radioligand” value turned out to be 20 fold. Besides, the “lung receptor occupancy ED50” value at LPAR1 (setting [6]) was found to be 0.1 mg/kg; at LPAR1 (single oral dose 3 h prior to radioligand), 0.5 mg/kg; at LPAR1 (single oral dose 24 h prior to radioligand), 0.09 mg/kg. In addition, the EC50 worked out at 18 nM at LPAR1 (setting [6]); 79 nM on LPAR1 (single oral dose, 3 h); 4 nM at LPAR1 (single oral dose, 24 h). Besides, the EC90 at LPAR1 (once per day for 4 days (steady state), read-out: lung receptor occupancy EC90 (total plasma concentration)) came to 50 nM. Besides, the “radiotracer displacement (LPAR1 receptor occupancy) in lung” value was “Significant radiotracer displacement (LPAR1 receptor occupancy) was observed at 3 mg/kg” at LPAR1 (single oral dose, 3 h post dose); “significant occupancy was observed at both 0.3 and 3 mg/kg” at LPAR1 (single oral dose, 24 h post dose). The “ATP content (cell viability)” value in data set [3] is on record as “nor a decrease in ATP content”. In data set [3], the “lactate dehydrogenase leakage (cell death)” value was “neither an appreciable increase in lactate dehydrogenase”. In addition, the “slice health as measured by LDH in the media” value in data set [4] is given as “no significant effect on slice health”. The safety and tolerability entry in data set [5] is “safe and well-tolerated”.
